# Results as given in patent US8440717B2, “Hair growth regulating agent” (Kao Corporation, priority 2008, dated 2013).
# Tested on: porcine hair follicles
# Experiment: Hair growth suppressing effect by organ culture method using porcine hair follicles
# Type: cell-based, pig
# Details: for activity at 0.003 % / activity at 3e-05 %: 120 h, day 5 after start of culture with sample-containing medium; for activity at 0.003 %: concentration 0.003%; for activity at 3e-05 %: concentration 0.00003%; for activity at 0.01 %: concentration 0.01%
# Method: The skin of a pork pig was cut into pieces of appropriate size, and excess fat was removed. For disinfection, the skin pieces were immersed in a Hibitane solution under sterile conditions for 10 to 20 minutes. The thus-disinfected skin pieces were washed several times with D-PBS.
# Subsequently, hair follicles were isolated from the thus-treated skin pieces under a stereomicroscope by means of tweezers and a scalpel (FEATHER No. 10), and the hair follicles were placed on William's Medium E (Gibco cat. No. 12551-032) supplemented with penicillin/streptomycin (Gibco cat. No. 15140-122) solution by 10.
# The isolated hair follicles were transferred to a 24-well culture plate (one follicle/well) together with the aforementioned culture medium (400 μL), and cultured in an incubator (37° C., 5% CO2) for two days.
# Subsequently, compounds synthesized in Example 1 (compounds 2, 6, 7, and 9 to 13) were diluted with the aforementioned culture medium, to thereby prepare sample-containing media. Each of the thus-prepared sample-containing media was used for replacement. Similarly, N,N-dimethylglycine methyl ester (DMG) and 1,8-diaminooctane (1,8-DAO) were diluted with the aforementioned culture medium, to thereby prepare sample-containing media. Each of the thus-prepared sample-containing media was also used for replacement.
# The medium for culture of hair follicles was replaced with each of the sample-containing media, and thereafter, replaced with a sample-containing medium every one or two days. At days five or six after the start of culture with the sample-containing medium, the elongation of hair follicles (i.e., elongation of hair) was measured and compared with that of the control in which medium was replaced with only the non-sample-containing medium. The elongation of hair follicles (i.e., elongation of hair) in the control medium was taken as 100%.
# The sample concentration of each sample-containing medium was set within a range that the sample is completely dissolved in the medium, and at non-cytotoxic levels which cause no reduction of cell viability with 24-hour addition of the sample to epidermal cells.
# [1] = Sus scrofa, read-out: Percent growth of hair follicles (control = 100%)
# [2] = Sus scrofa, 144 h, day 6 after start of culture with sample-containing medium, read-out: Percent growth of hair follicles (control = 100%)
structure (smiles),measurement,setting,value
"CN(C)CC(=O)NCCCCCCCCCCCCNC(=O)CN(C)C [Compound 12, 2-Dimethylamino-N-[12-(2-Dimethylamino-Acetylamino)-Dodecyl]-Acetamide]",activity at 0.003 %,[1],48.7%
"CCCCCCCCCCCCNC(=O)C[N+](C)(C)C.[Cl-] [Compound 7, Dodecylcarbamoylmethyltrimethylammonium Chloride]",activity at 3e-05 %,[1],42.4%
same,"suppressive effect on growth of hair follicles (i.e., hair growth), rank among tested compounds","comparison across Tables 1 and 2, compound 7 at 0.000030",highest suppressive effect
"NCCCCCCCCN [1,8-DAO, 1,8-diaminooctane, reference compound]",activity at 0.03 %,"Sus scrofa, 144 h, day 6 after start of culture with sample-containing medium, concentration 0.03%, read-out: Percent growth of hair follicles (control = 100%)",87.9%
"CN(C)CC(=O)NCCCCNC(=O)CN(C)C [Compound 13, 2-Dimethylamino-N-[4-(2-Dimethylamino-Acetamino)-Butyl]-Acetamide]",activity at 0.003 %,[1],79.1%
"CN(C)CC(=O)NCCCCCCCCNC(=O)CN(C)C [Compound 10, 2-Dimethylamino-N-[8-(2-Dimethylamino-Acetylamino)-Octyl]-Acetamide]",activity at 0.01 %,[2],54.7%
"CCCCCCCCCCCCNC(=O)CN(C)C [Compound 2, 2-Dimethylamino-N-Dodecyl-Acetamide]",activity at 3e-05 %,[1],108%
"CCNC(=O)CN(C)C [Compound 6, 2-Dimethylamino-N-Ethyl-Acetamide]",activity at 0.003 %,[1],91.6%
"CN(C)CC(=O)NCCOCCOCCNC(=O)CN(C)C [Compound 9, 2-Dimethylamino-N-(2-{2-[2-(2-Dimethylamino-Acetylamino)-Ethoxy]-Ethoxy}-Ethyl)-Acetamide]",activity at 0.01 %,[2],62.4%
"CN(C)CC(=O)NCCOCCOCCOCCNC(=O)CN(C)C [Compound 11, 2-Dimethylamino-N-[2-(2-{2-[2-(2-Dimethylamino-Acetylamino)-Ethoxy]-Ethoxy}-Ethoxy)-Ethyl]-Acetamide]",activity at 0.003 %,[1],97%
